Reference: US4374149A, “α-{[(Arylalkyl)amino]alkyl}-4-hydroxy-3-(lower-alkylsul finyl)benzenemethanols” (Sterling Drug Inc., priority 1978, dated 1983)
Structures can show the parent of a compound that is named as a salt.

What was measured:
[1] = system: Ouabain-induced arrhythmia; test: Conversion of ouabain-induced arrhythmia in dogs; format: in vivo, mongrel dogs; design: key: active (A); inactive (I)
Protocol: (§1) The test procedures were carried out as follows.
Na-pentobarbital supplements were given i.v. as needed.
Both parameters were printed out on a Grass polygraph.

[2] = system: systolic blood pressure; test: Antihypertensive activity, reduction in systolic blood pressure, single oral medication, unanesthetized spontaneous hypertensive rat; format: in vivo; conditions: for Actual reduction in blood pressure observed at the indicated dose / Antihypertensive activity SH Rat AHD40 (single oral dose required to induce a 40 mm. average reduction in systolic blood pressure): P.O.; for Antihypertensive activity SH Rat AHD40 (single oral dose required to induce a 40 mm. average reduction in systolic blood pressure): unanesthetized SH rat
Protocol: Antihypertensive activity was determined on the basis of the observed reduction in systolic blood pressure measured according to the method of H. Kersten et al., J. Lab. and Clin. Med. 32, 1090 (1947) following a single oral medication in the unanesthetized spontaneous hypertensive rat described by Okamato et al., Japan Circulation J. 27, 282 (1963).
^a AHD40 = single oral dose required to induce a 40 mm. average

[3] = system: Ba++-induced arrhythmia; test: Conversion of Ba++-induced arrhythmia in rabbits; format: in vivo; design: key: active (A); inactive (I)
Protocol: as §1
Adult rabbits or either sex weighing between 1.7 and 2.3 kg. were anesthetized with 30 to 35 mg./kg. Na-pentobarbital i.v. via a marginal ear vein. Monoplar ECG pin electrodes were inserted for a lead II display on a Model 5 Grass Polygraph using standard electrocardiographic procedures. A 23 ga. hypodermic needle, attached via a polyethylene catheter to a 10 cc. syringe, was inserted into the same vein as was used for anesthesia. A BaCl2.2H2 O solution in saline was then infused at a constant volume of 0.2 cc/min. from a Harvard Apparatus Model 600 infusion pump. This infusion was not stopped until termination of the experiment. In some studies barium chloride in distilled water was used without detectable differences. The standard rate of BaCl2.2H2 O infusion was established at 0.3 mg./kg./min. (1.2×10^-6 M/kg./min.), and the concentration was adjusted appropriately in each case to accommodate the weight of the rabbit.
When the desired arrhythmia was established, the test compound was introduced as a water or saline solution into the marginal ear vein of the unused ear. The volume used was between 0.5 and 2.0 cc./kg. and was injected as a bolus over approximately 30 seconds. Deviations from standard vehicle, rate of injection and total volume administered were at the discretion of the operator. The standard initial dose of an unknown compound on the first rabbit was 5×10^-5 M/kg. In general, two to three rabbits were used to determine anti-arrhythmic activity and the dose range of activity; multiple doses were administered. Once activity and dose was indicated, two additional rabbits were employed to confirm anti-arrhythmic activity against a multifocal tachycardia.

[4] = system: β-adrenergic; test: β-adrenergic blocking activity, inhibition of isoproterenol-elicited heart rate increase in pentobarbitalized dog; format: in vivo; conditions: i.v.; for Dog β-blockade AED50 (approximate intravenous dose for 50% inhibition of isoproterenol-elicited heart rate increase): pentobarbitalized dog
Protocol: The β-adrenergic blocking activity was determined in the pentobarbitalized dog as judged by the ability of the test compound to inhibit the elevation in heart rate elicited by a 0.5 mcg./kg. i.v. injection of isoproterenol.
^e AED50 = approximate intravenous dose required to cause 50%

[5] = Acute intravenous and oral toxicity in mice; format: in vivo
Protocol: Acute intravenous and oral toxicity in mice was determined for the compound of Example 2G as follows: The compound was dissolved in distilled water and administered as the base at a volume of 10 ml./kg. for the i.v. ALD50 or 10-40 ml./kg. for the p.o. ALD50. The compound was administered in graded doses to groups of three mice each (Swiss-Webster strain males weighing 20±2 g.). Mortality occurred within 1 minute after i.v. administration and within 10 minutes after oral administration. […] The i.v. ALD50 was 75 mg./kg. and the p.o. ALD50 was 1500 mg./kg.

[6] = system: isolated rabbit ear artery; test: Vasodilator activity, perfusion pressure in isolated rabbit ear artery
Text: (§2) Vasodilator activity was judged on the basis of observed reduction in perfusion pressure in the hind limb vasculature of the anesthetized dog determined according to the procedure described by Jandhyala et al., European J. Pharm. 17, 357 (1972), and also on the basis of percent reduction in perfusion pressure as measured in the isolated rabbit ear artery according to the method described by De LaLande et al., Aust. J. Exp. Biol. Med. Sci. 43, 639 (1965).
^d Vasodilation is expressed as the percentage reduction in perfusion

[7] = system: blood pressure; test: Antihypertensive activity, sustained lowering of blood pressure, repeated oral medication, unanesthetized trained renal hypertensive dog; format: in vivo; conditions: tid.; for Actual percentage reduction in blood pressure observed at the indicated dose: 0.125 mg./kg.
Text: Antihypertensive activity was also judged on the basis of sustained reduction of blood pressure observed in the unanesthetized trained renal hypertensive dog following repeated oral medication according to the procedure described by Lape et al., Arch.
^b MED10 = minimum repeated oral daily dose required to effect a

[8] = system: hind limb vasculature; test: Vasodilator activity, perfusion pressure in hind limb vasculature of anesthetized dog; format: in vivo; conditions: for Vasodilator activity Dog-Leg Perfusion AED50 (approximate intraarterial dose for 50 reduction in perfusion pressure) / ED50: anesthetized dog hind limb, intraarterial; for Vasodilator activity Dog-Leg Perfusion AED50 (approximate intraarterial dose for 50 reduction in perfusion pressure): acetate salt; for ED50: Canis lupus familiaris, read-out: Vasodilator activity Dog-Leg Perfusion AED50 (approximate intraarterial dose for 50 reduction in perfusion pressure)
Text: as §2
^c AED50 = approximate intraarterial dose required to cause a 50

[9] = 5 × 10^-5 M, 50 µM, acetate salt

Compound	Antihypertensive activity SH Rat AHD40 (single oral dose required to induce a 40 mm. average reduction in systolic blood pressure) [2] [mg/kg]	Dog β-blockade AED50 (approximate intravenous dose for 50% inhibition of isoproterenol-elicited heart rate increase) [4]	Actual percentage inhibition of heart rate increase above control level observed at the indicated dose ([4]; 1.0 mg./kg.) [%]	Antihypertensive activity SH Rat AHD40 (single oral dose required to induce a 40 mm. average reduction in systolic blood pressure) ([2]; acetate salt) [mg/kg]	Rabbit Ear Artery vasodilation (percentage reduction in perfusion pressure from control level) [6, 9] [%]	Renal Hypertensive Dog MED10 (minimum repeated oral daily dose for sustained lowering of blood pressure of 10% or greater) [7] [mg/kg]	Dog β-blockade AED50 (approximate intravenous dose for 50% inhibition of isoproterenol-elicited heart rate increase) ([4]; acetate salt) [mg/kg]	Vasodilator activity Dog-Leg Perfusion AED50 (approximate intraarterial dose for 50 reduction in perfusion pressure) [8] [mg/kg]	ED50 [8] [mg/kg]	Actual reduction in blood pressure observed at the indicated dose ([2]; 20 mg./kg.) [mm. Hg]	also measured
CC(CCc1ccc(O)cc1)NCCc1ccc(O)c([S+](C)[O-])c1 (single isomer, unassigned) [Example 30E, 4-<2-{[3-(4-hydroxy-phenyl)-1-mehylpropyl]amino}ethyl>-2-(methylsulfinyl)phenol hydrochloride]	> 50	ca. 0.50 mg./kg.									Conversion of Ouabain-induced Arrhythmia ([1]; 1 × 10^-5 M/kg.): A; Actual reduction in blood pressure observed at the indicated dose ([2]; 50 mg./kg.): -3 mm. Hg; Conversion of Ba++-induced Arrhythmia ([3]; 2 × 10^-5 M/kg.): A
COc1ccc(CCC(C)(C)NCCc2ccc(O)c([S+](C)[O-])c2)cc1 (centres unmarked) [Example 34C, 4-<2-{[3-(4-methoxyphenyl)-1,1-dimethylpropyl]amino}ethyl>-2-(methylsulfinyl)phenol hydrochloride]	> 50	> 1.0 mg/kg	40								Conversion of Ouabain-induced Arrhythmia ([1]; 2 × 10^-5 M/kg.): A; Actual reduction in blood pressure observed at the indicated dose ([2]; 50 mg./kg.): -8 mm. Hg; Conversion of Ba++-induced Arrhythmia ([3]; 2.5 × 10^-6 M/kg.): A
COc1ccc(CCC(C)NCC(O)c2ccc(O)c([S+](C)[O-])c2)cc1 (stereo not drawn) [Example 2G, 4-hydroxy-α-<{[3-(4-methoxyphenyl)-1-methylpropyl]amino}methyl>-3-(methylsulfinyl)benzenemethanol acetate salt]				2.0	50	0.0316	0.025	0.5			Antihypertensive activity (in words) ([2]; standard pharmacological tests on representative examples): high antihypertensive activity; Time of mortality after i.v. administration ([5]; i.v.): ≤ 1 min; Symptoms of acute intoxication for the fatalities ([5]; mouse, in vivo): atoxia, loss of righting reflux, clonic convulsions and dyspnea followed by respiratory arrest; Untoward symptoms in survivors ([5]; mouse, in vivo): no untoward symptoms observed for up to 7 days for the survivors; LD50 ([5]; mouse, in vivo, iv): 75 mg/kg; LD50 ([5]; mouse, in vivo, po): 1500 mg/kg; Time of mortality after oral administration ([5]; oral): ≤ 10 min
CC(=O)O.C[S+]([O-])c1cc(C(O)CNC(C)(C)Cc2ccccc2)ccc1O (stereo not drawn) [Example 14D, α-{[(1,1-dimethyl-2-phenylethyl)amino]-methyl}-4-hydroxy-3-(methylsulfinyl)benzenemethanol acetate salt]	20.0	< 1.0 mg/kg	87						0.5		Rabbit Ear Artery vasodilation (percentage reduction in perfusion pressure from control level) ([6]; 1 × 10^-6 M, 1 µM): 29%
COc1ccc(CCC(C)NCC(O)c2ccc(O)c([S+](C)[O-])c2)cc1 (stereo not drawn) [Example 4C, 4-hydroxy-α-<{[3-(4-methoxyphenyl)-1-methylpropyl]amino}methyl>-3-(methylsulfinyl)benzenemethanol acetate salt]				> 20.0			~0.5	0.5		-33	Rabbit Ear Artery vasodilation (percentage reduction in perfusion pressure from control level) ([6]; 1 × 10^-4 M, 100 µM, acetate salt): 10%
COc1ccc(CCC(C)NCC(O)c2ccc(O)c([S+](C)[O-])c2)cc1 (stereo not drawn) [Example 6E, 4-hydroxy-α-<{[3-(4-methoxyphenyl)-1-methylpropyl]amino}methyl>-3-(methylsulfinyl)benzenemethanol acetate salt]				15.0	58		0.25	> 0.025			Actual percentage reduction in perfusion pressure observed at the indicated dose ([8]; 0.025 mg./kg. intraarterial): 25%
COc1ccc(CCC(C)NCC(O)c2ccc(O)c([S+](C)[O-])c2)cc1 (stereo not drawn) [Example 2H, 4-hydroxy-α-<{[3-(4-methoxyphenyl)-1-methylpropyl]amino}methyl>-3-(methylsulfinyl)benzenemethanol acetate salt]				9.0	20		0.025	0.5			
CC(=O)O.C[S+]([O-])c1cc(C(O)CNC(C)(C)CCc2ccccc2)ccc1O (stereo not drawn) [Example 17C, α-{[(1,1-dimethyl-3-phenylpropyl)amino]methyl}-4-hydroxy-3-(methylsulfinyl)benzenemethanol acetate salt]	> 20.0	0.05 mg/kg							0.5	-37	Conversion of Ouabain-induced Arrhythmia ([1]; 5 × 10^-6 M/kg.): A; Rabbit Ear Artery vasodilation (percentage reduction in perfusion pressure from control level) ([6]; 5 × 10^-5 M, 50 µM): 50%; Conversion of Ba++-induced Arrhythmia ([3]; 2.5 × 10^-6 M/kg.): A
COc1ccc(CCC(C)(C)NCC(O)c2ccc(O)c([S+](C)[O-])c2)cc1 (stereo not drawn) [Example 18D, α-<{[1,1-dimethyl-3-(4-methoxyphenyl)propyl]amino}methyl>-4-hydroxy-3-(methylsulfinyl)benzenemethanol acetate salt]	> 20.0	< 1.0 mg/kg	100			> 0.125			0.5	-26	Rabbit Ear Artery vasodilation (percentage reduction in perfusion pressure from control level) ([6]; 1 × 10^-4 M, 100 µM): 42%; Conversion of Ba++-induced Arrhythmia ([3]; 5 × 10^-6 M/kg.): A; Actual percentage reduction in blood pressure observed at the indicated dose [7]: 0%
COc1ccc(CCCNCC(O)c2ccc(O)c([S+](C)[O-])c2)cc1 (stereo not drawn) [Example 20C, 4-hydroxy-α-<{[3-(4-methoxyphenyl)propyl]amino}methyl>-3-(methylsulfinyl)benzenemethanol acetate salt]	7.0	< 0.1 mg/kg				> 0.125			0.5		Rabbit Ear Artery vasodilation (in words) ([6]; concentration not given): constrictor; Actual percentage reduction in blood pressure observed at the indicated dose [7]: 0%; Actual percentage inhibition of heart rate increase above control level observed at the indicated dose ([4]; 0.1 mg./kg.): 67%
